For experiment [1], the target named is T1, human EGFR (d746-750/T790M/C797S) (Homo sapiens, UniProt P00533, C797S/DEL746-750/T790M).
T1 construct: human EGFR (d746-750/T790M/C797S) (668-end, SignalChem); purchased SignalChem
Briefly: EGFR C797S enzyme inhibition activity (ADP-Glo kinase assay). It counts as biochemical. Conditions: purified enzyme 3 ng, ATP 5 μM, 25° C., 1 hour, luminescence; read-out: EGFR DTC Enzyme IC50. The method, then:
<Experimental Example 1> Evaluation of EGFR C797S Enzyme Inhibition Activity
The compounds according to the present invention were reacted together with purified human EGFR (d746-750/T790M/C797S) (668-end, SignalChem) enzyme and a specific substrate and evaluated for enzyme inhibitory activity as described below. The reaction buffer consisted of 40 mM Tris-HCl pH 7.4, 20 mM MgCl2, 0.5 mg/ml BSA, and 50 μM DTT, and all reactions of the test substances were performed in reaction buffers. The compounds were serially diluted in 12 steps from a 10 mM DMSO stock, and the enzyme activity was measured at the final compound concentrations of 10, 3, 1, 0.3, 0.1, 0.03, 0.01, 0.003, 0.001, 0.0003, 0.0001, and 0 μM. In the assay, human EGFR (d746-750/T790M/C797S) (3 ng) enzyme was reacted with purified ATP (5 μM) and enzyme substrate (0.2 μg) at 25° C. for 1 hour, and the enzyme activity was determined using the in vitro ADP-Glo™ kinase assay (Promega). The enzyme activity inhibition was measured via luminescence by reacting the enzyme activity reaction solution, ADP-Glo reaction solution, and enzyme activity detection solution in a 2:2:1 ratio. Based on the luminescence of the enzyme activity of the solvent control group that was not treated with the compound, the degree of the enzyme activity inhibition depending on the treatment concentration of each compound was calculated, wherein the concentration of each compound that inhibited the enzyme activity by 50% was determined as the IC50 (nM) value, which was obtained using GraphPad Prism 8.4.3 (GraphPad software Inc., San Diego).

In experiment [2] the test system is Ba/F3 expressing EGFR Del19/T790M/C797S mutations. Briefly: Inhibitory activity on proliferation of Ba/F3 cell overexpressing EGFR C797S (Cell Titer-Glo). It counts as cell-based. Conditions: Mus musculus, BaF3; 72 hours treatment, cell growth rate vs control; read-out: Ba/F3 (EGFR DTC) GI50. How it is done: <Experimental Example 2> Evaluation of Inhibitory Activity on Proliferation of Ba/F3 Cell Overexpressing EGFR C797S
The following experiments were performed to evaluate the inhibitory activity of the compounds according to the present invention on the proliferation of Ba/F3 expressing EGFR Del19/T790M/C797S mutations.
Ba/F3 cells were cultured in RPMI-1640 medium supplemented with 10% fetal bovine serum (FBS), and 3000 cells were seeded into each well of a white clear bottom 96 well plate (Corning) 24 hours prior to compound treatment. The compounds were diluted in dimethyl sulfoxide (3-fold dilution, total of 12 concentrations) and injected at 1 μl each so that the final concentration was […] to 5 μM. After 72 hours post treatment with compounds, living cells were reacted in a 37° C., CO2 incubator for […], followed by 10 minutes at room temperature using Cell Titer-Glo luminescent cell-viability reagent (Promega), and the luminescence intensity thereof was measured using a reader (SynergyNeo2, Biotek). The result values were calculated as a cell growth rate (%) compared to the control group. GI50 values were calculated using the GraphPad Prism version 8.4.3 (GraphPad software Inc., San Diego) program.

Structures are written as SMILES.

T1 sequence (P00533 with tags, fused parts or gaps DEL746-750/T790M/C797S): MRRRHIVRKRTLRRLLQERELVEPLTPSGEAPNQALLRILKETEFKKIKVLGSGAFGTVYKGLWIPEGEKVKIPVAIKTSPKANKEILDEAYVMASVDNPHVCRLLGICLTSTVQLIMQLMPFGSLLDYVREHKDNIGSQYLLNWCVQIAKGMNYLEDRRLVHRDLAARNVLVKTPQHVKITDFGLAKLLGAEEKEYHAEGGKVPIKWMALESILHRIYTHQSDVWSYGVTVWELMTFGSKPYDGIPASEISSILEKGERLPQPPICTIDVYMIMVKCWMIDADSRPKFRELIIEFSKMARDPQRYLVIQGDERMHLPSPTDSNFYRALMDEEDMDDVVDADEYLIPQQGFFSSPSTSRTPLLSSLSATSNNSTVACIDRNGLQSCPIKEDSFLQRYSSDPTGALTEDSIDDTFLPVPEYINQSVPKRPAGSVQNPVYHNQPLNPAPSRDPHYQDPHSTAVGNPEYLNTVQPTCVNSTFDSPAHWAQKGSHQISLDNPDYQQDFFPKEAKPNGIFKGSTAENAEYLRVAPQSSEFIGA

As a reminder, the IC50 is the concentration needed to halve the response being measured. With `CO[C@H]1CCN(c2nccc(Nc3cc(NC4CCCC4)c(C(=O)N4CC(CS(C)(=O)=O)C4)cn3)n2)C[C@H]1F` (relative stereo) [Example 13, (4-(cyclopentylamino)-6-((2-(cis-3-fluoro-4-methoxypiperidin-1-yl)pyrimidin-4-yl)amino)pyridin-3-yl)(3-((methylsulfonyl)meth-yl)azetidin-1-yl)methanone], in experiment [1], the IC50 is 50 to 500 nM. In addition, the GI50 in experiment [2] was in the range of 500 to 5000 nM.
For `CO[C@H]1CCN(c2nccc(Nc3cc(NC4CCNC4)c(C(=O)N4CC(CS(C)(=O)=O)C4)cn3)n2)C[C@H]1F` (relative stereo) [Example 15, (6-((2-(cis-3-fluoro-4-methoxypiperidin-1-yl)pyrimidin-4-yl)amino)-4-(pyrrolidin-3-ylamino)pyridin-3-yl)(3-((methylsulfonyl)meth-yl)azetidin-1-yl)methanone], in that order: 50 to 500 nM and 500 to 5000 nM.
For `CO[C@H]1CCN(c2nccc(Nc3cc(NC(C)C)c(C(=O)N4CC(C#N)C4)cn3)n2)C[C@H]1F` (relative stereo) [Example 17, 1-(6-((2-(cis-3-fluoro-4-methoxypiperidin-1-yl)pyrimidin-4-yl)amino)-4-(isopropylamino)nico-tinoyl)azetidine-3-carbonitrile], in that order: less than 50 nM and 500 to 5000 nM.
For `CO[C@H]1CCN(c2nccc(Nc3cc(NC(C)C)c(C(=O)Nc4cccc(N5CCN(C)CC5)c4)cn3)n2)C[C@H]1F` (relative stereo) [Example 41, 6-((2-(cis-3-fluoro-4-methoxypiperidin-1-yl)pyrimidin-4-yl)amino)-4-(isopropylamino)-N-(3-(4-methylpiperaizn-1-yl)phenyl)nicotinamide], in that order: less than 50 nM and 500 to 5000 nM.
Turning to `CO[C@H]1CCN(c2nccc(Nc3cc(NC(C)C)c(C(=O)Nc4cc(N5CCN(C)CC5)cc(C(C)(C)C#N)c4)cn3)n2)C[C@H]1F` (relative stereo) [Example 42, N-(3-(2-cyanopropan-2-yl)-5-(4-methylpiperazin-1-yl)phenyl)-6-((2-(cis-3-fluoro-4-methoxypiperidin-1-yl)pyrimidin-4-yl)amino)-4-(isopropylamino)nico-tinamide], the half-maximal inhibitory concentration (IC50) in experiment [1] is less than 50 nM. Moreover, the GI50 in experiment [2] fell in the range of 500 to 5000 nM.
For `CO[C@H]1CCN(c2nccc(Nc3cc(NC(C)C)c(C(=O)NCCc4ccccc4)cn3)n2)C[C@H]1F` (relative stereo) [Example 96, 6-((2-(cis-3-fluoro-4-methoxypiperidin-1-yl)pyrimidin-4-yl)amino)-4-(isopropylamino)-N-phenethylnicotinamide], in that order: 50 to 500 nM and 500 to 5000 nM.
For `COC(=O)CCNC(=O)c1cnc(Nc2ccnc(N3CC[C@H](OC)[C@H](F)C3)n2)cc1NC(C)C` (relative stereo) [Example 97, methyl 3-(6-((2-(cis-3-fluoro-4-methoxypiperidin-1-yl)pyrimidin-4-yl)amino)-4-(isopropylamino)nico-tinamido)propanoate], in that order: less than 50 nM and 500 to 5000 nM.
For `CO[C@H]1CCN(c2nccc(Nc3cc(NC(C)C)c(C(=O)NCCC(F)(F)F)cn3)n2)C[C@H]1F` (relative stereo) [Example 98, 6-((2-(cis-3-fluoro-4-methoxypiperidin-1-yl)pyrimidin-4-yl)amino)-4-(isopropylamino)-N-(3,3,3-trifluoropropyl)nico-tinamide], in that order: less than 50 nM and less than 500 nM.
`CC(C)Nc1cc(Nc2ccnc(-c3cnn(S(=O)(=O)C4CC4)c3)n2)ncc1C(=O)N1CC(CS(C)(=O)=O)C1` [Example 1, (6-((2-(1-(cyclopropylsulfonyl)-1H-pyrazol-4-yl)pyrimidin-4-yl)amino)-4-(isopropylamin)pyri-din-3-yl)(3-((methylsulfonyl)meth-yl)azetidin-1-yl)methanone]: the half-maximal inhibitory concentration (IC50) in experiment [1] is less than 50 nM. For the same compound, the GI50 in experiment [2] lay within 500 to 5000 nM.

Source of the values: patent publication US20250345329A1, “HETEROARYL DERIVATIVE COMPOUND AND USES THEREOF” (VORONOI, INC., priority 2022, published 2025).
